Measured values taken from US20220117266A1, “NICKEL CHELATION THERAPY” (priority 2019, published 2022).

Test system: C. jejuni 81-176
Assay: Growth inhibition, liquid 96-well checkerboard (OD600, MIC, MBC)
Type: cell-based, Campylobacter jejuni
Details: 24 h
Method: Growth inhibition assays: liquid (96-well) plates experiments. This type of experiment can only be conducted with C. jejuni since the gas requirement for C. concisus (H2-enriched microaerobic) is not compatible with the use of 96-well plates. C. jejuni cells were grown as described above, harvested, and resuspended in sterile NaCl (8 g/L) to an OD600 of 0.1, corresponding approximately to 5×10^8 to 1×10^9 cells/mL. […] Wells were serially (2-fold) diluted in each direction (horizontal and vertical) to introduce all combinations. Wells with no DMG or metal compounds served as (positive) growth controls, and wells with no bacteria served as background (negative growth) controls. A typical protocol and loading plan are described in Table 7. The starting inoculum was at OD600 of 0.05, which corresponds approximately to 2.5×10^8 cells/mL to 5×10^8 cells/mL. After 24 hours incubation under microaerobic conditions at 37° C., OD600 was recorded using a 96 well-plate reader (Microtek). […] Resulting growth (or lack of growth) was examined after overnight culturing; the lowest concentration that inhibits 99.9% of the original culture was defined as MBC. MIC and MBC were determined based on tests (plates) done in triplicate.

## CC(=NO)C(C)=NO [DMG, dimethylglyoxime]
DMG 0.062 mM + CuSO4 0 uM
  OD600: 0.31
DMG 0.062 mM + CuSO4 2 uM
  OD600: 0.37
DMG 0.062 mM + CuSO4 4 uM
  OD600: 0.31
DMG 0.062 mM + CuSO4 8 uM
  OD600: 0.33
DMG 0.062 mM + CuSO4 16 uM
  OD600: 0.34
DMG 0.062 mM + CuSO4 32 uM
  OD600: 0.24
DMG 0.062 mM + CuSO4 64 uM
  OD600: 0.22
DMG 0.062 mM + CuSO4 128 uM
  OD600: 0.24
DMG 0.062 mM + CuSO4 256 uM
  OD600: 0.35
DMG 0.062 mM + CuSO4 512 uM
  OD600: 0.34
DMG 0.062 mM + CuSO4 1024 uM
  OD600: 0.47
DMG 0.125 mM + CuSO4 0 uM
  OD600: 0.25
DMG 0.125 mM + CuSO4 2 uM
  OD600: 0.31
DMG 0.125 mM + CuSO4 4 uM
  OD600: 0.27
DMG 0.125 mM + CuSO4 8 uM
  OD600: 0.31
DMG 0.125 mM + CuSO4 16 uM
  OD600: 0.33
DMG 0.125 mM + CuSO4 32 uM
  OD600: 0.26
DMG 0.125 mM + CuSO4 64 uM
  OD600: 0.23
DMG 0.125 mM + CuSO4 128 uM
  OD600: 0.24
DMG 0.125 mM + CuSO4 256 uM
  OD600: 0.27
DMG 0.125 mM + CuSO4 512 uM
  OD600: 0.34
DMG 0.125 mM + CuSO4 1024 uM
  OD600: 0.47
DMG 0.25 mM + CuSO4 0 uM
  OD600: 0.26
DMG 0.25 mM + CuSO4 2 uM
  OD600: 0.31
DMG 0.25 mM + CuSO4 4 uM
  OD600: 0.24
DMG 0.25 mM + CuSO4 8 uM
  OD600: 0.37
DMG 0.25 mM + CuSO4 16 uM
  OD600: 0.33
DMG 0.25 mM + CuSO4 32 uM
  OD600: 0.25
DMG 0.25 mM + CuSO4 64 uM
  OD600: 0.22
DMG 0.25 mM + CuSO4 128 uM
  OD600: 0.24
DMG 0.25 mM + CuSO4 256 uM
  OD600: 0.24
DMG 0.25 mM + CuSO4 512 uM
  OD600: 0.27
DMG 0.25 mM + CuSO4 1024 uM
  OD600: 0.30
DMG 0.5 mM + CuSO4 0 uM
  OD600: 0.22
DMG 0.5 mM + CuSO4 2 uM
  OD600: 0.31
DMG 0.5 mM + CuSO4 4 uM
  OD600: 0.25
DMG 0.5 mM + CuSO4 8 uM
  OD600: 0.23
DMG 0.5 mM + CuSO4 16 uM
  OD600: 0.34
DMG 0.5 mM + CuSO4 32 uM
  OD600: 0.21
DMG 0.5 mM + CuSO4 64 uM
  OD600: 0.19
DMG 0.5 mM + CuSO4 128 uM
  OD600: 0.20
DMG 0.5 mM + CuSO4 256 uM
  OD600: 0.29
DMG 0.5 mM + CuSO4 512 uM
  OD600: 0.14
DMG 0.5 mM + CuSO4 1024 uM
  OD600: 0.09
DMG 1 mM + CuSO4 0 uM
  OD600: 0.20
DMG 1 mM + CuSO4 2 uM
  OD600: 0.27
DMG 1 mM + CuSO4 4 uM
  OD600: 0.23
DMG 1 mM + CuSO4 8 uM
  OD600: 0.21
DMG 1 mM + CuSO4 16 uM
  OD600: 0.37
DMG 1 mM + CuSO4 32 uM
  OD600: 0.24
DMG 1 mM + CuSO4 64 uM
  OD600: 0.19
DMG 1 mM + CuSO4 128 uM
  OD600: 0.10
DMG 1 mM + CuSO4 256 uM
  OD600: 0.02
DMG 1 mM + CuSO4 512 uM
  OD600: 0.02
DMG 1 mM + CuSO4 1024 uM
  OD600: 0.04
DMG 2 mM + CuSO4 0 uM
  OD600: 0.24
DMG 2 mM + CuSO4 2 uM
  OD600: 0.34
DMG 2 mM + CuSO4 4 uM
  OD600: 0.25
DMG 2 mM + CuSO4 8 uM
  OD600: 0.26
DMG 2 mM + CuSO4 16 uM
  OD600: 0.24
DMG 2 mM + CuSO4 32 uM
  OD600: 0.17
DMG 2 mM + CuSO4 64 uM
  OD600: 0.01
DMG 2 mM + CuSO4 128 uM
  OD600: 0.01
DMG 2 mM + CuSO4 256 uM
  OD600: 0.01
DMG 2 mM + CuSO4 512 uM
  OD600: 0.02
DMG 2 mM + CuSO4 1024 uM
  OD600: 0.04
DMG 4 mM + CuSO4 0 uM
  OD600: 0.19
DMG 4 mM + CuSO4 2 uM
  OD600: 0.26
DMG 4 mM + CuSO4 4 uM
  OD600: 0.15
DMG 4 mM + CuSO4 8 uM
  OD600: 0.04
DMG 4 mM + CuSO4 16 uM
  OD600: 0.00
DMG 4 mM + CuSO4 32 uM
  OD600: 0.00
DMG 4 mM + CuSO4 64 uM
  OD600: 0.01
DMG 4 mM + CuSO4 128 uM
  OD600: 0.01
DMG 4 mM + CuSO4 256 uM
  OD600: 0.02
DMG 4 mM + CuSO4 512 uM
  OD600: 0.02
DMG 4 mM + CuSO4 1024 uM
  OD600: 0.04
